Our source for the Kd and Classification values is US20050282743A1, “Molecular interactions in cells” (Arbor Vita Corporation, priority 2001, published 2005).

Ends that are not written are not given here. Peptide text beside a SMILES is read from it. * marks the point of attachment. Biotin = O=C1N[C@H]2[C@H](CS[C@H]2CCCCC(=O)*)N1

Holding throughout (assay type): binding
Assay [1] concerns the target T1, PDZ-domain polypeptide (GST/PDZ fusion protein) (Homo sapiens, UniProt Q14160).
T1 construct: made in house; host or cells: E. coli (DH5alpha, BL21 or JM109)
Put plainly: Apparent affinity (Kd) by titration of PL peptide in the G assay. The note with it: PDZ KIAA0147, PDZ Domain 3; read-out: Peptide Optimal Conc (Kd by titration of the PL peptide). Put shortly: (§1)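 A fixed concentration of GST/PDZ fusion protein, 5 ug/ml by default, was mixed in solution with increasing labeled PL peptide (e.g. 0.1 uM-1 mM). Reaction times ranged from 10 minutes to 2 days at 4-37° C. Complexes were separated from free peptide and detected via the label as in the G assay, apparent affinity coming from the saturating concentration.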

Assay [2] concerns the target T2, PDZ-domain polypeptide (GST/PDZ fusion protein) (Homo sapiens, UniProt Q96RT1).
T2 construct: made in house; host or cells: E. coli (DH5alpha, BL21 or JM109)
The assay is described as above. The note with it: PDZ Erbin, PDZ Domain 1; read-out: Peptide Optimal Conc (Kd by titration of the PL peptide). The method, boiled down:
as §1

Assay [3] deals with T3, PDZ-domain polypeptide (GST/PDZ fusion protein) (Homo sapiens, UniProt Q9HD26).
T3 construct: made in house; host or cells: E. coli (DH5alpha, BL21 or JM109)
The assay is described as above. The note with it: Peptide Optimal Conc (Kd by titration of the PL peptide), PDZ PIST, PDZ Domain 1. Put shortly:
as §1

Assay [4] deals with T4, PDZ protein (GST-PDZ fusion) (Homo sapiens, UniProt Q9Y566).
T4 construct: made in house; host or cells: E. coli (DH5alpha, BL21 or JM109)
Put plainly: G' assay (10 uM PL peptide), results of TABLE 7 and TABLE 12. The note with it: PDZ SHANK1, PDZ Domain 1. Put shortly: (§2)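 Biotin-PL peptide (N-term label), 10 uM vs GST-PDZ; protein 5 ug/ml by default. A450 nm binned: 1 = 0-1, 2 = 1-2, 3 = 2-3, 4 = 3-4, 5 = >4 on >2 repeats, 0 = no binding.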

The target of assay [5] is T5, PDZ protein (GST-PDZ fusion) (Homo sapiens, UniProt Q9NZW5).
T5 construct: made in house; host or cells: E. coli (DH5alpha, BL21 or JM109)
T5 sequence (Q9NZW5 1-540): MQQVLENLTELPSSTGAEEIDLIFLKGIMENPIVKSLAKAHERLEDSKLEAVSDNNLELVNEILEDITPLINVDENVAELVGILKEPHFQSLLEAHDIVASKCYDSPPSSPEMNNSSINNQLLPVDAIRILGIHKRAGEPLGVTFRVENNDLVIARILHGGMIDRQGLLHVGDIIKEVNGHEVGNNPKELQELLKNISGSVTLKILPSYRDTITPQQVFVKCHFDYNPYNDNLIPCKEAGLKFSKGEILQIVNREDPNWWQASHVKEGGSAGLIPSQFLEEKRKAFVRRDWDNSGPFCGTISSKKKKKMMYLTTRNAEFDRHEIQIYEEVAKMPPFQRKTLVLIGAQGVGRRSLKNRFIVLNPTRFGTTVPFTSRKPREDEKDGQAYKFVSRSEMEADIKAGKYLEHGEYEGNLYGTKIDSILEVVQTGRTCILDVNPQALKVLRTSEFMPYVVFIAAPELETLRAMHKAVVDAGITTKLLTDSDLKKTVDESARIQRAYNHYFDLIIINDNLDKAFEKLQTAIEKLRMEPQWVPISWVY
The assay is described as above. The note with it: PDZ P55T, PDZ Domain 1. The method, boiled down:
as §2

For assay [6], the target named is T6, PDZ-domain polypeptide (GST/PDZ fusion protein) (Homo sapiens, UniProt P57105).
T6 construct: made in house; host or cells: E. coli (DH5alpha, BL21 or JM109)
Put plainly: Apparent affinity (Kd) by titration of PL peptide in the G assay. The note with it: PDZ Outer Membrane, PDZ Domain 1; Protein Optimal Conc 5. Put shortly:
as §1

Assay [7] deals with T7, PDZ-domain polypeptide (GST/PDZ fusion protein) (Homo sapiens, UniProt Q07157).
T7 construct: made in house; host or cells: E. coli (DH5alpha, BL21 or JM109)
The description is as above. The note with it: Peptide Optimal Conc (Kd by titration of the PL peptide), PDZ ZO-1, PDZ Domain 2. Put shortly: as §1

For assay [8], the target named is T8, PDZ-domain polypeptide (GST/PDZ fusion protein) (Homo sapiens, UniProt O15018).
T8 construct: made in house; host or cells: E. coli (DH5alpha, BL21 or JM109)
The description is as above. The note with it: Peptide Optimal Conc (Kd by titration of the PL peptide), PDZ AIPC, PDZ Domain 1. The method, boiled down:
as §1

T4 sequence (Q9Y566 whole entry, the tested form may be a part): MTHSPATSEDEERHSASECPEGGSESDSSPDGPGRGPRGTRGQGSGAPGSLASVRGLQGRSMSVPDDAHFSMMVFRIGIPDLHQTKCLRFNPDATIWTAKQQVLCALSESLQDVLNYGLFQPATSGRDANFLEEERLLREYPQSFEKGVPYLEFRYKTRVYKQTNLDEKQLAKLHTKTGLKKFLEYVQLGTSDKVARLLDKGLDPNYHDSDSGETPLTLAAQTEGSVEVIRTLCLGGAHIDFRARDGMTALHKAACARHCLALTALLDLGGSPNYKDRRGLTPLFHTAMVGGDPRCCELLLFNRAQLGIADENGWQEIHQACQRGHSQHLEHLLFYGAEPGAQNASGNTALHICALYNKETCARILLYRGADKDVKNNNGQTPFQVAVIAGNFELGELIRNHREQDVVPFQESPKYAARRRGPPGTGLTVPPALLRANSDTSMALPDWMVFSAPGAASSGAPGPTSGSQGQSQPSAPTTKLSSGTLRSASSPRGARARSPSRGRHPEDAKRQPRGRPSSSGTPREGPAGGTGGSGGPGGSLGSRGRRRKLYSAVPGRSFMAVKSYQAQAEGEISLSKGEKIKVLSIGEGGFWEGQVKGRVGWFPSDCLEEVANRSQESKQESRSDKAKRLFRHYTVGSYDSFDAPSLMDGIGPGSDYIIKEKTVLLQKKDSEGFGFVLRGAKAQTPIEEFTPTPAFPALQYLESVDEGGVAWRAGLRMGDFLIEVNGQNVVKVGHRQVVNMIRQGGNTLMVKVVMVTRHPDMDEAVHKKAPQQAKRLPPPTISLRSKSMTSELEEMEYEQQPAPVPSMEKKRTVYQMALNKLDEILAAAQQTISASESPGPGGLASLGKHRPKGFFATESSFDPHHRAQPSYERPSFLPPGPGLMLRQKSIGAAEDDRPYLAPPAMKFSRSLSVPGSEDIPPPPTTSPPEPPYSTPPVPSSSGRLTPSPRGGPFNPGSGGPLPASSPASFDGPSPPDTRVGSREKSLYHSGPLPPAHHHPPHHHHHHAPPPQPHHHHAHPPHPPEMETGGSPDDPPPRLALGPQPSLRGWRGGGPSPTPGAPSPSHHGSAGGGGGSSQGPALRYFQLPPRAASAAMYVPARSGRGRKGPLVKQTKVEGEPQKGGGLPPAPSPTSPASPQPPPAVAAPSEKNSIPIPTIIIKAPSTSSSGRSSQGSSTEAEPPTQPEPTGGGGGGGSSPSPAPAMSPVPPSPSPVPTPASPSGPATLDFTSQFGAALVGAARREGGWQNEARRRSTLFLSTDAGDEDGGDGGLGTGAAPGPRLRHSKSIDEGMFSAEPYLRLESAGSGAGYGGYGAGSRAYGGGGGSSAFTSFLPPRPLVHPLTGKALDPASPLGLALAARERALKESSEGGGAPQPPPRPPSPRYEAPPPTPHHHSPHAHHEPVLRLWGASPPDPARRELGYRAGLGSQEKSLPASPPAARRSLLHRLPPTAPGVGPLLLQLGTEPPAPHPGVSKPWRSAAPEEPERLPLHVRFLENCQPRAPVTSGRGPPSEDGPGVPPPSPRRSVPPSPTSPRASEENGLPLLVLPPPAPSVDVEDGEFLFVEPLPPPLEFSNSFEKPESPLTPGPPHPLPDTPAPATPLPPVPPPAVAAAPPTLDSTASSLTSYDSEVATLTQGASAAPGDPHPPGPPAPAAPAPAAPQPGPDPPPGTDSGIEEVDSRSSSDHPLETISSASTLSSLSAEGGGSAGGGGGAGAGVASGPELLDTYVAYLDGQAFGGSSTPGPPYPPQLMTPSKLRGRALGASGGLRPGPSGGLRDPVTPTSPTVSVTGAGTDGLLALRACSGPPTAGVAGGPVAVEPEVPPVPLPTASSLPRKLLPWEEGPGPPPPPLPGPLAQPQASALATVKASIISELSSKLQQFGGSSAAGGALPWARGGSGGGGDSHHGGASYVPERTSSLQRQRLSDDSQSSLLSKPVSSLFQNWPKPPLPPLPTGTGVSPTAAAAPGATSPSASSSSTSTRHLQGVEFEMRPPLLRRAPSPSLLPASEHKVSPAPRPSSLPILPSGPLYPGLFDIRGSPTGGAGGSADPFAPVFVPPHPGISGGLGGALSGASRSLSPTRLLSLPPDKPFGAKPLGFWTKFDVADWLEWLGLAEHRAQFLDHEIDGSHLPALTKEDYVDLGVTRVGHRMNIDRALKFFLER
T7 sequence (Q07157 whole entry, the tested form may be a part): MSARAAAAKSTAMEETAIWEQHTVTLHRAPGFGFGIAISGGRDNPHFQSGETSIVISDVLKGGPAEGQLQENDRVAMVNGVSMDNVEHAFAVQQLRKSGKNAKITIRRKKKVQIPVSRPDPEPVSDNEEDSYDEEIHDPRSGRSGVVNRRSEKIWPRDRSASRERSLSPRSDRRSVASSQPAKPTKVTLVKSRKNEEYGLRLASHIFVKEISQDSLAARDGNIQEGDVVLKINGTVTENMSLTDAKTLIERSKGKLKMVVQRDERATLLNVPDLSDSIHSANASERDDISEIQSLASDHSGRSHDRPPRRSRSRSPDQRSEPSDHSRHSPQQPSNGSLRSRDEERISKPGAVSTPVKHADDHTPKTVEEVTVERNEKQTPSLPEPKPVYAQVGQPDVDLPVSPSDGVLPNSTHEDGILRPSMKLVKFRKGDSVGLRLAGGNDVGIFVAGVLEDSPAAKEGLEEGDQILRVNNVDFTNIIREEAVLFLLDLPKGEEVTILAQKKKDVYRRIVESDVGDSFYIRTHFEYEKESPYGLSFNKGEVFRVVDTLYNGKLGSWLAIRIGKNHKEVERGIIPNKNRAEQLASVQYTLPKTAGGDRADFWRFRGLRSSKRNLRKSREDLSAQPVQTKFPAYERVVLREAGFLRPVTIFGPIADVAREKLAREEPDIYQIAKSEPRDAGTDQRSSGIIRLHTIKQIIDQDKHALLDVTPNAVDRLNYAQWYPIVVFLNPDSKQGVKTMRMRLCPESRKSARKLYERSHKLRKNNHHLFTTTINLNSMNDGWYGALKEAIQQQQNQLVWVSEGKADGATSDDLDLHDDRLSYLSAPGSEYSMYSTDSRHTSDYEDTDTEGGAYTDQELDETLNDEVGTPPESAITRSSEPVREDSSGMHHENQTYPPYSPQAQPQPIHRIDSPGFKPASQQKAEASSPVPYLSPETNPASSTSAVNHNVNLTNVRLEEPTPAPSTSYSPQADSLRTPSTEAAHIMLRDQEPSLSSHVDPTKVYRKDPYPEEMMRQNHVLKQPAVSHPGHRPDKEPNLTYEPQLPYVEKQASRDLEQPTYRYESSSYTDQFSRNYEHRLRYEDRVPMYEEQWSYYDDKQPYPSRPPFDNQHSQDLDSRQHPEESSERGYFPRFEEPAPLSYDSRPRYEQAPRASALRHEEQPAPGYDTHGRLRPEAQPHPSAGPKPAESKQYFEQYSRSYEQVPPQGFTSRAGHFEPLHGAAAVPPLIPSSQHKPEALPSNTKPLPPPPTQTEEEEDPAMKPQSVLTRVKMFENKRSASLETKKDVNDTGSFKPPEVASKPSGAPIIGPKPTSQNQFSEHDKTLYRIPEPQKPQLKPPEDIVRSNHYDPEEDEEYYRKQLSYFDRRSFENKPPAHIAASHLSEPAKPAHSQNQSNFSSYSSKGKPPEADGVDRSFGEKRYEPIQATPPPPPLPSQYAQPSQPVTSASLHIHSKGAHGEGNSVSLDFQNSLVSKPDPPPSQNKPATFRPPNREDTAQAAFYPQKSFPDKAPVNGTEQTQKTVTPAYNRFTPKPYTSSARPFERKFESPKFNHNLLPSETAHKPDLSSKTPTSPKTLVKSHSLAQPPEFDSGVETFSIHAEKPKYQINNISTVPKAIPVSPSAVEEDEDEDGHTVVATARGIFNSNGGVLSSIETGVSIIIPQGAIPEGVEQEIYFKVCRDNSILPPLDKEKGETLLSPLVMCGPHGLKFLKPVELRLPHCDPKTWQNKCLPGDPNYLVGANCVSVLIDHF
T6 sequence (P57105 whole entry, the tested form may be a part): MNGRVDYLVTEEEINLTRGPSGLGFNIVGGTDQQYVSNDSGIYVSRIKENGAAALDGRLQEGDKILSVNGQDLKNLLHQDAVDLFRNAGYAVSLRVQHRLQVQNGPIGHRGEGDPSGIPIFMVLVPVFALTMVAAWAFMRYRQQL

For `CSCC[C@H](NC(=O)[C@H](C)NC(=O)[C@H](CCCNC(=N)N)NC(=O)CNC(=O)[C@@H](NC(=O)[C@H](Cc1c[nH]c2ccccc12)NC(=O)[C@H](CCCNC(=N)N)NC(=O)CNC(=O)CCCC[C@@H]1SC[C@@H]2NC(=O)N[C@@H]21)[C@@H](C)O)C(=O)N[C@@H](CO)C(=O)N[C@@H](C)C(=O)N[C@@H](Cc1c[nH]c2ccccc12)C(=O)N[C@@H](CCCCN)C(=O)N1CCC[C@H]1C(=O)N[C@H](C(=O)N[C@@H](CCCNC(=N)N)C(=O)N[C@@H](CCCNC(=N)N)C(=O)N[C@@H](CCC(=O)O)C(=O)N[C@H](C(=O)N[C@@H](CCC(=O)O)C(=O)N[C@H](C(=O)O)C(C)C)[C@@H](C)O)[C@@H](C)O` [HPV E6 #35 (modified)] (Biotin-GRWTGRAMSAWKPTRRETEV-OH; C-terminus assumed), the Kd was 350 nM in assay [1] and 400 nM in assay [2].

Turning to `CC[C@H](C)[C@H](NC(=O)[C@H](CC(=O)O)NC(=O)[C@H](CCC(=O)O)NC(=O)[C@H](CCCNC(=N)N)NC(=O)[C@@H](NC(=O)CCCC[C@@H]1SC[C@@H]2NC(=O)N[C@@H]21)[C@@H](C)O)C(=O)N[C@@H](Cc1ccc(O)cc1)C(=O)N[C@H](C(=O)N[C@@H](CC(N)=O)C(=O)N[C@@H](Cc1ccc(O)cc1)C(=O)N1CCC[C@H]1C(=O)N[C@H](C(=O)N[C@@H](Cc1ccccc1)C(=O)N[C@@H](CO)C(=O)N[C@@H](CCCNC(=N)N)C(=O)N[C@@H](CCCNC(=N)N)C(=O)N1CCC[C@H]1C(=O)N[C@@H](CCCCN)C(=O)N[C@H](C(=O)N[C@@H](CCCNC(=N)N)C(=O)N[C@H](C(=O)O)C(C)C)[C@@H](C)O)[C@@H](C)O)C(C)C` [DNAM-1] (Biotin-TREDIYVNYPTFSRRPKTRV-OH; C-terminus assumed), the Kd in assay [3] came to 2500 nM. In addition, in assay [4], the Classification is 5 (A450 nm of 4 more than 2× repeated).

In the case of “KTMPAAMFRLLTGQETPLYI (Biotin-KTMPAAMFRLLTGQETPLYI) [MINT-2]”, the Classification in assay [5] is listed as 1 (A450 nm 0-1). On to `CC[C@H](C)[C@H](NC(=O)[C@H](CCCCN)NC(=O)[C@@H](NC(=O)[C@H](CO)NC(=O)[C@@H]1CCCN1C(=O)[C@H](Cc1ccccc1)NC(=O)[C@@H](NC(=O)[C@@H](NC(=O)[C@H](CCCNC(=N)N)NC(=O)[C@H](CCC(=O)O)NC(=O)[C@H](CC(C)C)NC(=O)[C@H](CC(C)C)NC(=O)[C@H](CC(C)C)NC(=O)[C@@H](NC(=O)CNC(=O)[C@@H](NC(=O)CCCC[C@@H]1SC[C@@H]2NC(=O)N[C@@H]21)C(C)C)[C@@H](C)O)C(C)C)[C@@H](C)CC)C(C)C)C(=O)N[C@@H](C)C(=O)N[C@H](C(=O)N[C@@H](CC(C)C)C(=O)N[C@H](C(=O)O)C(C)C)[C@@H](C)O` [Adenovirus E4 Type9], for which, in assay [6], the Kd came to 100 nM.

As to `CC[C@H](C)[C@H](NC(=O)[C@H](C)NC(=O)[C@H](CC(C)C)NC(=O)[C@H](Cc1c[nH]c2ccccc12)NC(=O)[C@H](Cc1c[nH]cn1)NC(=O)[C@H](CCC(N)=O)NC(=O)[C@H](CC(C)C)NC(=O)[C@H](CCC(N)=O)NC(=O)[C@H](Cc1ccccc1)NC(=O)[C@H](CCC(N)=O)NC(=O)[C@H](CCCNC(=N)N)NC(=O)[C@@H](NC(=O)[C@H](CC(=O)O)NC(=O)[C@H](CCCNC(=N)N)NC(=O)[C@H](CCC(N)=O)NC(=O)[C@H](C)NC(=O)[C@@H](NC(=O)[C@H](CC(C)C)NC(=O)[C@H](Cc1c[nH]cn1)NC(=O)[C@H](Cc1c[nH]cn1)NC(=O)CCCC[C@@H]1SC[C@@H]2NC(=O)N[C@@H]21)C(C)C)[C@@H](C)CC)C(=O)O` [noradrenaline transporter] (Biotin-HHLVAQRDIRQFQLQHWLAI-OH; C-terminus assumed), the Kd in assay [7] was determined as 400 nM; in assay [8], 600 nM.
